Measurements from publication PMC13596996 (Cell, 2026).

Tested on: GABAA receptor
Assay: whole-cell voltage-clamp, dose-response, blocked by gabazine
Set-up: species or system Mus musculus

EC50: 134 µM
Structure (SMILES): [H]/N=C(/N)NCC(=O)O [GAA, guanidinoacetate]
